Measured values reported in patent publication US8173628B2, “Steroidal antiestrogens and antiandrogens and uses thereof” (Northeastern University, priority 2000, dated 2012).

What was measured:
immature female rat [1] = test: immature female rat uterotrophic growth assay, estrogenic assay; assay type: in vivo
Protocol: (§1) These trifluoromethyl substituted compounds were also studied with an immature female rat uterotrophic growth assay; the results are shown in FIGS. 12, 13, and 14. […] Therefore, the agonist responses observed in the in vitro cell proliferation assay were carried over to the intact animal as well. The antiestrogen assay evaluated the ability of the isomers to block the uterotrophic effect induced by 1 nM estradiol. […] Therefore, in both estrogen responsive cells and tissues these new ligands are producing differential responses in affinity and efficacy related to the site of trifluoromethyl substitution on the phenyl ring.

MCF-7 cells = test: proliferation assay of MCF-7 cells; assay type: cell-based; conditions: for effect on the proliferative response to estradiol: ligand added in the presence of 1 nM estradiol; for ability of the ligand to stimulate the proliferation of MCF-7 cells: ligand alone
From the text: Trifluoromethyl group was introduced onto phenylvinyl estradiol either at the ortho, meta, or para positions. These compounds were examined for their ability to stimulate or inhibit estrogen responses in two assay systems. […] The meta- and para-isomers gave substantially different profiles. […] Therefore, the position of the trifluoromethyl group exerted a significant effect on the efficacy of the ligand.

immature female rat [2] = test: immature female rat uterotrophic growth assay, antiestrogen assay; assay type: in vivo; conditions: 1 nM estradiol
Protocol: as §1

Row | Structure (SMILES) | estrogenic effect (uterotrophic growth) (immature female rat [1]; 3 nM level) | estrogenic effect (uterotrophic growth) (immature female rat [1]; 10 and 100 nM) | effect on the proliferative response to estradiol (MCF-7 cells) | ability of the ligand to stimulate the proliferation of MCF-7 cells (MCF-7 cells) | ability to block the uterotrophic effect induced by estradiol (immature female rat [2]; isomer at 10 and 100 nM) | ability to block the uterotrophic effect induced by estradiol (immature female rat [2]; isomer at 100 nM)
1 | CC12CCC3c4ccc(O)cc4CCC3C1CCC2(O)C=Cc1ccccc1C(F)(F)F (stereo not drawn) [Compound 4a, 17α-20E-21-(2-Trifluoromethylphenyl)-19-norpregna-1,3,5(10),20-tetraene-3,17β-diol] | effect comparable to estradiol | substantial estrogenic effects | neither an enhancement nor a diminution of the proliferative response | full agonist response comparable to that of estradiol | enhancement of the estrogenic response | 
2 | CC12CCC3c4ccc(O)cc4CCC3C1CCC2(O)C=Cc1cccc(C(F)(F)F)c1 (stereo not drawn) [Compound 5a, 17α-20E-21-(3-Trifluoromethylphenyl)-19-norpregna-1,3,5(10),20-tetraene-3,17β-diol] |  | little or no estrogenic effects | antagonized the effects of estradiol at the same doses | weak proliferative effect at doses greater than 1 nM | no significant effect on the estradiol response | 
3 | CC12CCC3c4ccc(O)cc4CCC3C1CCC2(O)C=Cc1ccc(C(F)(F)F)cc1 (stereo not drawn) [Compound 6a, 17α-20E-21-(4-Trifluoromethylphenyl)-19-norpregna-1,3,5(10),20-tetraene-3,17β-diol] |  | little or no estrogenic effects | decreases in the estradiol effects were observed below 1 nM | did not elicit a proliferative response until a 10 nM dose was employed |  | reduced the estrogenic response
